Measurements from the Kinase Knowledgebase extract (Sharma et al. 2016).

What follows are compounds tested against PIK3CG (human) (UniProt P48736) (assay: Assessment of PIK3CG Kinase Activity).
Sequence of PIK3CG (human) (P48736 whole entry, looked up): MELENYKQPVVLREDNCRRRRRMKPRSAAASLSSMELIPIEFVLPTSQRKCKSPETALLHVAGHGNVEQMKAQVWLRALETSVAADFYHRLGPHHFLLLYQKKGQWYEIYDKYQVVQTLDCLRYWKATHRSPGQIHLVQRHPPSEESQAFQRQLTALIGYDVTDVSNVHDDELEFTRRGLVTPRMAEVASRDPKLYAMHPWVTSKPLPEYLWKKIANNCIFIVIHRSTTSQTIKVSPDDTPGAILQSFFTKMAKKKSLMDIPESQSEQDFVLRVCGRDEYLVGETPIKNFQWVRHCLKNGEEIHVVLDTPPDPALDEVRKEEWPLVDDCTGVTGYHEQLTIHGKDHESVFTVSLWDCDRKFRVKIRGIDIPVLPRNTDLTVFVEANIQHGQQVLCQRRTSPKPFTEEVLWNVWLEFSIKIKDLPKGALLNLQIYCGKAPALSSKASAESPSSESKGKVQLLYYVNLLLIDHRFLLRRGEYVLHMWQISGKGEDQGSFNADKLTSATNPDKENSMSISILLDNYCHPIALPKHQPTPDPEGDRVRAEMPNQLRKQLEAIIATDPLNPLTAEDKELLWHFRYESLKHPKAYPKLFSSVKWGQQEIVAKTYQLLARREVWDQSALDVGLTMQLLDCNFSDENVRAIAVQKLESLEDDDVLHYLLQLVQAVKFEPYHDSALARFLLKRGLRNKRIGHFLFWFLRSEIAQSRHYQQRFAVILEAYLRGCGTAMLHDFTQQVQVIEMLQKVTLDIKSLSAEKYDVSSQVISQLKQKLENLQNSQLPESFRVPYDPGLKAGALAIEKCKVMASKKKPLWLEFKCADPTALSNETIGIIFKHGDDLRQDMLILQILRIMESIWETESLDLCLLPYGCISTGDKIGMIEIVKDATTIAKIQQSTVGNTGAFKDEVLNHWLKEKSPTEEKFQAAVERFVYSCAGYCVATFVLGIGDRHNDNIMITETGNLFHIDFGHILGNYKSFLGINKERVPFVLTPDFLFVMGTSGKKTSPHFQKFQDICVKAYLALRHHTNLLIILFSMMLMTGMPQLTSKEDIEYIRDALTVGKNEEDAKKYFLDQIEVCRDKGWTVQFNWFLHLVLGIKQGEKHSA

Q: `O=C(Nc1nc2c(s1)-c1nc(-c3ccccc3Cl)ncc1CC2)N1CCCC(c2nc3ccccc3[nH]2)C1` (stereo not drawn) was tested. Which IC50 did it give?
A: < 800 nM

Q: For `O=C(Nc1nc2c(s1)-c1nc(-c3cccc(F)c3Cl)ncc1CC2)NC1CC1`, which IC50 is on record?
A: < 800 nM

Q: For `CC(C)CNC(=O)Nc1nc2c(s1)-c1nc(-c3cccc(F)c3Cl)ncc1CC2`, which IC50 is on record?
A: < 800 nM

Q: With `CCn1cnc(CCNC(=O)Nc2nc3c(s2)-c2nc(-c4ccccc4Br)ncc2CC3)c1` as the compound, how does the IC50 read?
A: < 800 nM

Q: `O=C(NCc1cccc(N2CCOC2=O)c1)Nc1nc2c(s1)-c1nc(-c3ccccc3Cl)ncc1CC2` was tested. Which IC50 did it give?
A: < 800 nM

Q: `COC(=O)CNC(=O)Nc1nc2c(s1)-c1nc(-c3ccccc3Cl)ncc1CC2` was tested. Which IC50 did it give?
A: < 800 nM

Q: How did the IC50 turn out when `O=C(NCc1ccccc1-n1cccn1)Nc1nc2c(s1)-c1nc(-c3ccccc3Cl)ncc1CC2` was run?
A: < 800 nM

Q: `Cc1nn(C)cc1CNC(=O)Nc1nc2c(s1)-c1nc(-c3ccccc3Cl)ncc1CC2` was tested. Which IC50 did it give?
A: < 800 nM

Q: With `CC(C)(C)OC(=O)N[C@H]1CCN(C(=O)Nc2nc3c(s2)-c2nc(-c4ccccc4Cl)ncc2CC3)C1` as the compound, how does the IC50 read?
A: < 800 nM

Q: How did the IC50 turn out when `NC(=O)Nc1nc2c(s1)-c1nc(-c3ccccc3C(F)(F)F)ncc1CC2` was run?
A: < 800 nM

Q: With `CCc1csc(CCNC(=O)Nc2nc3c(s2)-c2nc(-c4ccccc4C(F)(F)F)ncc2CC3)n1` as the compound, how does the IC50 read?
A: < 800 nM

Q: How did the IC50 turn out when `CC(C)C(=O)Nc1cccc(CNC(=O)Nc2nc3c(s2)-c2nc(-c4ccccc4Cl)ncc2CC3)c1` was run?
A: < 800 nM

Q: With `CC(C)CN(C)C(=O)CCNC(=O)Nc1nc2c(s1)-c1nc(-c3ccccc3Cl)ncc1CC2` as the compound, how does the IC50 read?
A: < 800 nM

Q: For `CC(C)NC(=O)Nc1nc2c(s1)-c1nc(-c3cccc(F)c3Cl)ncc1CC2`, which IC50 is on record?
A: < 800 nM

Q: For `O=C(Nc1nc2c(s1)-c1nc(-c3ccccc3Cl)ncc1CC2)N1CC[C@H](NS(=O)(=O)N2CCCC2)C1`, which IC50 is on record?
A: < 800 nM

Q: How did the IC50 turn out when `CNC(=O)c1cccc(CNC(=O)Nc2nc3c(s2)-c2nc(-c4ccccc4Cl)ncc2CC3)c1` was run?
A: < 800 nM

Q: With `NC(=O)Nc1nc2c(s1)-c1nc(-c3ccccc3F)ncc1CC2` as the compound, how does the IC50 read?
A: < 800 nM

Q: `CCc1csc(CCNC(=O)Nc2nc3c(s2)-c2nc(-c4ccccc4F)ncc2CC3)n1` was tested. Which IC50 did it give?
A: < 800 nM

Q: `COc1cccc([C@@H](C)NC(=O)Nc2nc3c(s2)-c2nc(-c4ccccc4Cl)ncc2CC3)c1` was tested. Which IC50 did it give?
A: < 800 nM

Q: How did the IC50 turn out when `O=C(NCc1cccc(N2CCCCC2)c1)Nc1nc2c(s1)-c1nc(-c3ccccc3Cl)ncc1CC2` was run?
A: < 800 nM

Q: How did the IC50 turn out when `O=C1CCC(NC(=O)Nc2nc3c(s2)-c2nc(-c4ccccc4Cl)ncc2CC3)C(c2ccccc2)N1` (stereo not drawn) was run?
A: < 800 nM

Q: How did the IC50 turn out when `CC(NC(=O)Nc1nc2c(s1)-c1nc(-c3ccccc3Cl)ncc1CC2)c1cccc(NC(=O)OC(C)(C)C)c1` (stereo not drawn) was run?
A: < 800 nM

Q: Which IC50 does the source give for `CC(C)NC(=O)N[C@H]1CCN(C(=O)Nc2nc3c(s2)-c2nc(-c4ccccc4Cl)ncc2CC3)C1` here?
A: < 800 nM

Q: Which IC50 does the source give for `CCN(CC)C(=O)N[C@H]1CCN(C(=O)Nc2nc3c(s2)-c2nc(-c4ccccc4Cl)ncc2CC3)C1` here?
A: < 800 nM

Q: Which IC50 does the source give for `CCc1nnc(CCNC(=O)Nc2nc3c(s2)-c2nc(-c4ccccc4C(F)(F)F)ncc2CC3)o1` here?
A: < 800 nM

Q: Which IC50 does the source give for `O=C(NC[C@H]1CCCN1)Nc1nc2c(s1)-c1nc(-c3ccccc3Cl)ncc1CC2` here?
A: < 800 nM

Q: How did the IC50 turn out when `CCn1cc(CNC(=O)Nc2nc3c(s2)-c2nc(-c4ccccc4Br)ncc2CC3)cn1` was run?
A: < 800 nM

Q: How did the IC50 turn out when `O=C(Nc1nc2c(s1)-c1nc(-c3ccccc3Cl)ncc1CC2)N1CCCC(c2ccccc2O)C1` (stereo not drawn) was run?
A: < 800 nM

Q: How did the IC50 turn out when `CC(C)(CNc1ccc(C(C)(C)C)cc1)NC(=O)Nc1nc2c(s1)-c1nc(-c3ccccc3Cl)ncc1CC2` was run?
A: < 800 nM

Q: Which IC50 does the source give for `CC(C)CN(C)C(=O)c1cccc(CNC(=O)Nc2nc3c(s2)-c2nc(-c4ccccc4Cl)ncc2CC3)c1` here?
A: < 800 nM

Q: How did the IC50 turn out when `O=C(NCCC(=O)N1CCCCC1)Nc1nc2c(s1)-c1nc(-c3ccccc3Cl)ncc1CC2` was run?
A: < 800 nM

Q: With `CN(C(=O)OC(C)(C)C)C1CCN(C(=O)Nc2nc3c(s2)-c2nc(-c4ccccc4Cl)ncc2CC3)C1` (stereo not drawn) as the compound, how does the IC50 read?
A: < 800 nM

Q: How did the IC50 turn out when `COCCNC(=O)Nc1nc2c(s1)-c1nc(-c3ccccc3Cl)ncc1CC2` was run?
A: < 800 nM

Q: How did the IC50 turn out when `O=C(NCc1cccc(C(=O)N2CCOCC2)c1)Nc1nc2c(s1)-c1nc(-c3ccccc3Cl)ncc1CC2` was run?
A: < 800 nM

Q: How did the IC50 turn out when `CC(C)NC(=O)Nc1cccc(CNC(=O)Nc2nc3c(s2)-c2nc(-c4ccccc4Cl)ncc2CC3)c1` was run?
A: < 800 nM

Q: How did the IC50 turn out when `CCN(CC)CCNC(=O)Nc1nc2c(s1)-c1nc(-c3ccccc3Cl)ncc1CC2` was run?
A: < 800 nM

Q: For `CN(C)CCNC(=O)Nc1nc2c(s1)-c1nc(-c3ccccc3Cl)ncc1CC2`, which IC50 is on record?
A: < 800 nM

Q: With `Cn1cccc1CCNC(=O)Nc1nc2c(s1)-c1nc(-c3ccccc3Cl)ncc1CC2` as the compound, how does the IC50 read?
A: < 800 nM

Q: How did the IC50 turn out when `NC(=O)Nc1nc2c(s1)-c1nc(-c3ccccc3Cl)ncc1CC2` was run?
A: < 800 nM

Q: How did the IC50 turn out when `CC(C)(C)OC(=O)Nc1cccc(CNC(=O)Nc2nc3c(s2)-c2nc(-c4ccccc4Cl)ncc2CC3)c1` was run?
A: < 800 nM

Q: For `CC(C)(C)OC(=O)NCc1cccc(CNC(=O)Nc2nc3c(s2)-c2nc(-c4ccccc4Cl)ncc2CC3)c1`, which IC50 is on record?
A: < 800 nM

Q: With `CN(C)S(=O)(=O)Nc1cccc(CNC(=O)Nc2nc3c(s2)-c2nc(-c4ccccc4Cl)ncc2CC3)c1` as the compound, how does the IC50 read?
A: < 800 nM

Q: With `NC(=O)N1Cc2ccc(CNC(=O)Nc3nc4c(s3)-c3nc(-c5ccccc5Cl)ncc3CC4)cc2C1` as the compound, how does the IC50 read?
A: < 800 nM

Q: Which IC50 does the source give for `CNC(=O)CCNC(=O)Nc1nc2c(s1)-c1nc(-c3ccccc3Cl)ncc1CC2` here?
A: < 800 nM

Q: Which IC50 does the source give for `CS(=O)(=O)Nc1cccc(CNC(=O)Nc2nc3c(s2)-c2nc(-c4ccccc4Cl)ncc2CC3)c1` here?
A: < 800 nM

Q: With `Cn1cc(CNC(=O)Nc2nc3c(s2)-c2nc(-c4ccccc4F)ncc2CC3)cn1` as the compound, how does the IC50 read?
A: < 800 nM

Q: For `O=C(Nc1ccc(N2CCNCC2)cc1)Nc1nc2c(s1)-c1nc(-c3ccccc3Cl)ncc1CC2`, which IC50 is on record?
A: < 800 nM

Q: Which IC50 does the source give for `CC(C)c1cnc(CCNC(=O)Nc2nc3c(s2)-c2nc(-c4ccccc4Br)ncc2CC3)o1` here?
A: < 800 nM
